Assay results reported in patent publication US20260337153A1, “IONIZABLE AMINE LIPIDS” (Intellia Therapeutics, Inc., priority 2023, published 2026).
Values joined by “and” are separate entries in the source; they are usually repeats but may differ in a detail not shown here. Identical values can stand only once. Like-named read-outs stand apart in the source and are kept apart here. Blank lines part the entries; values can stand above or below the compound they belong to.

How the values were obtained:
Assay type in all cases: physicochemical
[1] = LNP average particle size and polydispersity by dynamic light scattering; settings: sgRNA:mRNA 1:2; for Number mean (average particle size) / PDI (polydispersity index) / Z-avg (average particle size): LNP with 50% ionizable lipid, 3% C13 Ether (LNP #1, Compound 53: 3% PEG2K-DMG instead)
Outline: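 Z-average (intensity-based) and number-mean diameters plus PDI measured by DLS on LNP samples diluted in PBS. LNPs carried sgRNA and Cas9 mRNA at 1:2 w/w, with lipids at 50% ionizable lipid, 38% cholesterol, 9% DSPC and 3% PEG lipid (PEG2K-DMG, C13 Ether or C14 Ether).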

[2] = LNP encapsulation efficiency of RNA (Ribogreen fluorescence assay); settings: sgRNA:mRNA 1:2
Outline: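 RiboGreen fluorescence (ex 488/em 525 nm) measured total RNA in 1×TE with 0.2% Triton X-100 and free RNA in 1×TE alone, against standard curves of the starting RNA; encapsulation = (total − free)/total. Total RNA alternatively quantified after Triton disruption by RP-IP HPLC, UV 260 nm.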

[3] = pKa of unformulated amine lipid by TNS fluorescence
Outline: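 Unformulated amine lipid was diluted from ethanol stock to approx. 100 μM in 0.1 M sodium phosphate buffers spanning pH 4.5–9.0 with TNS. Fluorescence read at ex 321/em 448 nm; normalized data fitted sigmoidally to give pKa.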

[4] = Table 3, Experiments 1-13, LNP 50% ionizable lipid, 38% cholesterol, 9% DSPC, 3% PEG2K-DMG
[5] = sodium phosphate buffer, additional ionizable lipids (53-61), unformulated amine lipid, TNS, read-out: Lipid pKa
[6] = sodium phosphate buffer, Table 2, unformulated amine lipid, TNS, read-out: Lipid pKa
[7] = LNP with 50% ionizable lipid, 38% cholesterol, 9% DSPC, 3% C13 Ether (LNP #1, Compound 53: 3% PEG2K-DMG instead)
[8] = Table 3, Experiment 14, LNP with 3% C13 Ether

SMILES: CCCCCCCCC(CCCCCCCC)OC(=O)CCCCCCC(=O)OCC(COC(=O)CCCCCCC(=O)OC(CCCCCCCC)CCCCCCCC)COC(=O)OCCCN(CC)CC [Compound 60]
Number mean [1, 4]: 78 nm | PDI [1, 4]: 0.02 | Z-avg [1, 4]: 87 nm | Number mean ([1]; Table 5, PEG lipid C13 Ether): 80 nm | PDI ([1]; Table 5, PEG lipid C13 Ether): 0.03 | Z-avg ([1]; Table 5, PEG lipid C13 Ether): 87 nm | Number mean ([1]; Table 5, PEG lipid C14 Ether): 83 nm | PDI ([1]; Table 5, PEG lipid C14 Ether): 0.03 | Z-avg ([1]; Table 5, PEG lipid C14 Ether): 95 nm | Number mean ([1]; Table 5, PEG lipid PEG2K-DMG): 77 nm | PDI ([1]; Table 5, PEG lipid PEG2K-DMG): 0.03 | Z-avg ([1]; Table 5, PEG lipid PEG2K-DMG): 89 nm | % E (encapsulation efficiency) [2, 4]: 97% | % E (encapsulation efficiency) ([2]; Table 5, PEG lipid C13 Ether): 95% | % E (encapsulation efficiency) ([2]; Table 5, PEG lipid C14 Ether): 96% | % E (encapsulation efficiency) ([2]; Table 5, PEG lipid PEG2K-DMG): 96% | pKa [3, 5]: 6.1

SMILES: CCCCC/C=C\C/C=C\CCCCCCCC(=O)OCC(COC(=O)CCCCCC(=O)OCC(CCCC)CCCCCC)COC(=O)OCCCN(CC)CC (stereo not shown) [Compound 4, 1-(2-butyloctyl) 7-(3-(((3-(diethylamino)propoxy)carbonyl)oxy)-2-((((9Z,12Z)-octadeca-9,12-dienoyl)oxy)methyl)propyl) heptanedioate]
Number mean [1, 4]: 78 nm and 83 nm | PDI [1, 4]: 0.02 and 0.04 | Z-avg [1, 4]: 95 nm and 91 nm | % E (encapsulation efficiency) [2, 4]: 99% | pKa [3, 6]: 6.05

SMILES: CCCCC/C=C\C/C=C\CCCCCCCC(=O)OCC(COC(=O)CCCCCC(=O)OC(CCCCCCCC)CCCCCCCC)COC(=O)NCCN(CC)CC (stereo not shown) [Compound 59]
Number mean [1, 4]: 83 nm and 78 nm | PDI [1, 4]: 0.01 and 0.02 | Z-avg [1, 4]: 100 nm and 95 nm | % E (encapsulation efficiency) [2, 4]: 83% and 82% | pKa [3, 5]: 6.8

SMILES: CCCCCCCCC(CCCCCCCC)OC(=O)CCCCCC(=O)OCC(CCCCCCCCC(=O)OCC(CCCC)CCCCCC)COC(=O)NCCN(CC)CC (stereo not shown) [Compound 51, 1-(11-((2-butyloctyl)oxy)-2-((((2-(diethylamino)ethyl)carbamoyl)oxy)methyl)-11-oxoundecyl) 7-(heptadecan-9-yl) heptanedioate]
Number mean [1, 4]: 81 nm | PDI [1, 4]: 0.03 | Z-avg [1, 4]: 90 nm | % E (encapsulation efficiency) [2, 4]: 99% | pKa [3, 6]: 6.39

SMILES: CCCCCCCCC(CCCCCCCC)OC(=O)CCCCCCC(=O)OCC(COC(=O)CCCCCCC(=O)OC(CCCCCCCC)CCCCCCCC)COC(=O)OCCCN1CCCC1 [Compound 65, 8,8′-di(heptadecan-9-yl) O′1,O1-(2-((((3-(pyrrolidin-1-yl)propoxy)carbonyl)oxy)methyl)propane-1,3-diyl) di(octanedioate)]
Number mean (average particle size) ([1]; 38% cholesterol, 9% DSPC): 62 nm | PDI (polydispersity index) ([1]; 38% cholesterol, 9% DSPC): 0.01 | Z-avg (average particle size) ([1]; 38% cholesterol, 9% DSPC): 74 nm | % E (encapsulation efficiency) [2, 7]: 99% | pKa ([3]; read-out: pKa): 6.4

SMILES: CCCCCCCCC(CCCCCCCC)OC(=O)CCCCCCC(=O)OCC(COC(=O)CCCCCCC(=O)OC(CCCCCCCC)CCCCCCCC)COC(=O)NCCN(CC)CC [Compound 52, O′1,O1-(2-((((2-(diethylamino)ethyl)carbamoyl)oxy)methyl)propane-1,3-diyl) 8,8′-di(heptadecan-9-yl) di(octanedioate)]
Number mean (average particle size) ([1]; 38% cholesterol, 9% DSPC): 74 nm | PDI (polydispersity index) ([1]; 38% cholesterol, 9% DSPC): 0.02 | Z-avg (average particle size) ([1]; 38% cholesterol, 9% DSPC): 88 nm | Number mean [1, 4]: 79 nm | PDI [1, 4]: 0.03 | Z-avg [1, 4]: 87 nm | Number mean ([1]; Table 7, LNP with 3% C13 Ether): 79 nm | PDI ([1]; Table 7, LNP with 3% C13 Ether): 0.01 | Z-avg ([1]; Table 7, LNP with 3% C13 Ether): 85 nm | % E (encapsulation efficiency) [2, 7]: 97% | % E (encapsulation efficiency) [2, 4]: 97% | % E (encapsulation efficiency) ([2]; Table 7, LNP with 3% C13 Ether): 97% | pKa [3, 6]: 6.47

SMILES: CCCCCCCCC(CCCCCCCC)OC(=O)CCCC(=O)OCC(COC(=O)CCCC(=O)OC(CCCCCCCC)CCCCCCCC)COC(=O)OCCCN(C)C [Compound 31, O,O′-(2-((((3-(dimethylamino)propoxy)carbonyl)oxy)methyl)propane-1,3-diyl) di(heptadecan-9-yl) diglutarate]
Number mean [1, 4]: 59 nm | PDI [1, 4]: 0.003 | Z-avg [1, 4]: 64 nm | % E (encapsulation efficiency) [2, 4]: 100% | pKa [3, 6]: 6.8

SMILES: CCCCC/C=C\C/C=C\CCCCCCCC(=O)OCC(CCCCC(=O)OC(CCCC)CCCC)COC(=O)OCCCN(CC)CC (stereo not shown) [Compound 14, 2-((((3-(diethylamino)propoxy)carbonyl)oxy)methyl)-7-(nonan-5-yloxy)-7-oxoheptyl (9Z,12Z)-octadeca-9,12-dienoate]
Number mean [1, 4]: 107 nm | PDI [1, 4]: 0.01 | Z-avg [1, 4]: 114 nm | % E (encapsulation efficiency) [2, 4]: 96% | pKa [3, 6]: 6.27

SMILES: CCCCCCCCC(CCCCCCCC)OC(=O)CCCC(=O)OCC(COC(=O)CCCC(=O)OC(CCCCCCCC)CCCCCCCC)COC(=O)NCCN1CCCC1 [Compound 29, di(heptadecan-9-yl) O,O′-(2-((((2-(pyrrolidin-1-yl)ethyl)carbamoyl)oxy)methyl)propane-1,3-diyl) diglutarate]
Number mean [1, 4]: 67 nm | PDI [1, 4]: 0.023 | Z-avg [1, 4]: 74 nm | % E (encapsulation efficiency) [2, 4]: 100% | pKa [3, 6]: 7.1

More lines, now with the values ahead:

Number mean [1, 4]: 64 nm | PDI [1, 4]: 0.03 | Z-avg [1, 4]: 72 nm | % E (encapsulation efficiency) [2, 4]: 98% | pKa [3, 6]: 6.44
SMILES: CCCCC/C=C\C/C=C\CCCCCCCC(=O)OCC(CCCCCCCCC(=O)OC(CCCCCCCC)CCCCCCCCC)COC(=O)CCC(CCCCCCCC)OC(=O)NCCN1CCCC1 (stereo not shown) [Compound 25, 11-(octadecan-9-yloxy)-11-oxo-2-(((4-(((2-(pyrrolidin-1-yl)ethyl)carbamoyl)oxy)dodecanoyl)oxy)methyl)undecyl (9Z,12Z)-octadeca-9,12-dienoate]

Number mean [1, 4]: 66 nm | PDI [1, 4]: 0.02 | Z-avg [1, 4]: 71 nm | % E (encapsulation efficiency) [2, 4]: 99% | pKa [3, 6]: 6.09
SMILES: CCCCC/C=C\C/C=C\CCCCCCCC(=O)OCC(CCCCCCCCC(=O)OC(CCCCCC)CCCCCC)COC(=O)OCCCN(CC)CC (stereo not shown) [Compound 19, 2-((((3-(diethylamino)propoxy)carbonyl)oxy)methyl)-11-oxo-11-(tridecan-7-yloxy)undecyl (9Z,12Z)-octadeca-9,12-dienoate]

Number mean [1, 4]: 59 nm | PDI [1, 4]: 0.008 | Z-avg [1, 4]: 63 nm | % E (encapsulation efficiency) [2, 4]: 99% | pKa [3, 6]: 5.7
SMILES: CCCCCCCCC(CCCCCCCC)OC(=O)CCCC(=O)OCC(COC(=O)CCCC(=O)OC(CCCCCCCC)CCCCCCCC)COC(=O)OCCCN1CCCCC1 [Compound 32, di(heptadecan-9-yl) O,O′-(2-((((3-(piperidin-1-yl)propoxy)carbonyl)oxy)methyl)propane-1,3-diyl) diglutarate]

Number mean (average particle size) ([1]; 38% cholesterol, 9% DSPC): 67 nm | PDI (polydispersity index) ([1]; 38% cholesterol, 9% DSPC): 0.002 | Z-avg (average particle size) ([1]; 38% cholesterol, 9% DSPC): 81 nm | Number mean [1, 8]: 68 nm | PDI [1, 8]: 0.02 | Z-avg [1, 8]: 73 nm | Number mean [1, 4]: 68 nm and 75 nm | PDI [1, 4]: 0.014 and 0.02 | Z-avg [1, 4]: 75 nm and 79 nm | Number mean ([1]; Table 5, PEG lipid C13 Ether): 72 nm | PDI ([1]; Table 5, PEG lipid C13 Ether): 0.01 | Z-avg ([1]; Table 5, PEG lipid C13 Ether): 79 nm | Number mean ([1]; Table 5, PEG lipid C14 Ether): 81 nm | PDI ([1]; Table 5, PEG lipid C14 Ether): 0.01 | Z-avg ([1]; Table 5, PEG lipid C14 Ether): 86 nm | Number mean ([1]; Table 5, PEG lipid PEG2K-DMG): 69 nm | PDI ([1]; Table 5, PEG lipid PEG2K-DMG): 0.04 | Z-avg ([1]; Table 5, PEG lipid PEG2K-DMG): 78 nm | Number mean ([1]; Table 7, LNP with 3% C13 Ether): 71 nm | PDI ([1]; Table 7, LNP with 3% C13 Ether): 0.01 | Z-avg ([1]; Table 7, LNP with 3% C13 Ether): 78 nm | % E (encapsulation efficiency) [2, 7]: 99% | % E (encapsulation efficiency) [2, 8]: 98% | % E (encapsulation efficiency) [2, 4]: 99% | % E (encapsulation efficiency) ([2]; Table 5, PEG lipid C13 Ether): 97% | % E (encapsulation efficiency) ([2]; Table 5, PEG lipid C14 Ether): 98% | % E (encapsulation efficiency) ([2]; Table 5, PEG lipid PEG2K-DMG): 97% | % E (encapsulation efficiency) ([2]; Table 7, LNP with 3% C13 Ether): 98% | pKa [3, 6]: 6.35
SMILES: CCCCCCCCC(CCCCCCCC)OC(=O)CCCC(=O)OCC(COC(=O)CCCC(=O)OC(CCCCCCCC)CCCCCCCC)COC(=O)NCCN(CC)CC [Compound 6, O,O′-(2-((((2-(diethylamino)ethyl)carbamoyl)oxy)methyl)propane-1,3-diyl) di(heptadecan-9-yl) diglutarate]

Number mean [1, 4]: 60 nm | PDI [1, 4]: 0.03 | Z-avg [1, 4]: 67 nm | % E (encapsulation efficiency) [2, 4]: 98% | pKa [3, 6]: 6.1
SMILES: CCCCC/C=C\C/C=C\CCCCCCCC(=O)OCC(CCCCCCCCC(=O)OC(CCCCCCCC)CCCCCCCCC)COC(=O)CCC(CCCCCCCC)OC(=O)NCCN(C)CC (stereo not shown) [Compound 24, 3-methyl-15-(9-(octadecan-9-yloxy)-9-oxononyl)-9-octyl-7,12-dioxo-8,13-dioxa-3,6-diazahexadecan-16-yl (9Z,12Z)-octadeca-9,12-dienoate]

Number mean [1, 4]: 69 nm | PDI [1, 4]: 0.01 | Z-avg [1, 4]: 75 nm | % E (encapsulation efficiency) [2, 4]: 99% | pKa [3, 6]: 6.08
SMILES: CCCCC/C=C\C/C=C\CCCCCCCC(=O)OCC(CCCCCCC(=O)OC(CCCCCC)CCCCCC)COC(=O)OCCCN(CC)CC (stereo not shown) [Compound 18, 2-((((3-(diethylamino)propoxy)carbonyl)oxy)methyl)-9-oxo-9-(tridecan-7-yloxy)nonyl (9Z,12Z)-octadeca-9,12-dienoate]

Number mean [1, 4]: 65 nm | PDI [1, 4]: 0.05 | Z-avg [1, 4]: 77 nm | % E (encapsulation efficiency) [2, 4]: 84% | pKa [3, 5]: 6.6
SMILES: CCCCCCCCCOC(=O)CCCCCCCN(CCO)CCCCCCCC(=O)OC(CCCCCCCC)CCCCCCCC [Compound 55]
